The record followed here is patent US8614333B2, “Acenaphtho heterocyclic compound and application thereof” (Dalian University of Technology, priority 2010, dated 2013).

Each structure is given as a SMILES string. pIC50, pKi: −log10 of the molar value.

The term pIC50 denotes the negative decadic logarithm of the IC50, by convention in mol/L. By melting point is commonly meant the temperature, or range, at which the solid turns liquid.

The test system of data set [1] is BAX shift towards the chondriosome. Kind of data set: Co-localization between Bax protein and chondriosome, Bax-YFP in MCF-7 cells. Format: cell-based. The conditions noted are these: for Doses (concentration at which the compound drove the BAX to shift towards the chondriosome): Bax-YFP/Mito Tracker Red; for Time (time period after which BAX shifted towards the chondriosome): at the concentration given. The gist of the method: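 MCF-7 cells transfected with Bax-YFP plasmid; 24 h later treated with 10 μM compound for 6 h, then stained 10 min with 50 nM MitoTracker Red CMXRos. Dual-channel laser confocal imaging; Bax mitochondrial localization read as green/red overlap (orange).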

Data set [2] deals with MCF-7 cells transfected with BAX/BAK interfering plasmid. Kind of data set: Cytotoxicity by MTT, cells transfected with BAX/BAK interfering plasmid. It is filed as cell-based. The following applies: Homo sapiens, MCF7; MCF-7 with BAX/BAK interfering plasmid, MTT, 48 hours. The gist of the method:
(§1)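 MCF-7 cells transfected with 3 μg BAX/BAK interfering plasmid by calcium phosphate, knockdown checked by Western; untransfected cells run in parallel. Cells treated with a compound concentration gradient for 48 hours; viability by MTT, IC50 derived.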

Another data set deals with Mcl-1 protein (Homo sapiens, UniProt Q07820). Kind of data set: Fluorescence polarization assay, competition with FAM-Bid peptide for Mcl-1. The following applies: FAM-Bid 5 nM, 4 hours of incubation, read-out: Mcl-1 binding constants. The protocol: (§2) A Bid BH3 peptide (amino acids: 79-99: […]) having 21 amino acids was synthesized and marked with 6-carboxyfluorescein N-succinimidyl ester (FAM) as fluorescent tag (FAM-Bid) at the N-terminal. The reaction system used in the competitive binding experiment was GST-Bcl-2 protein (40 nM) or Mcl-1 protein, which was dissolved in the reaction buffer (100 mM K3PO4, pH 7.5; 100 μg/ml bovine γ albumin; 0.02% sodium azide) together with FAM-Bid polypeptide (5 nM). In a 96-well plate, 100 µL of the reaction system was added into each well. Then 1 μL different concentration of compound 13 mother solution to be detected dissolved in DMSO was added there into until the final concentration met the experimental design requirements. Meanwhile, two control groups were established, one with the reaction system only containing Bcl-2 or Mcl-1 and FAM-Bid (equivalent to 0% inhibition rate), the other with the reaction system only containing FAM-Bid peptide. After 4 hours of incubation, the 96-well plate was detected by enzyme-labelled meter. The fluorescent polarization value (mP) was tested at […]. Ki value was deduced according to calculation formula.
Sequence of Mcl-1 protein (Q07820 whole entry, species assumed): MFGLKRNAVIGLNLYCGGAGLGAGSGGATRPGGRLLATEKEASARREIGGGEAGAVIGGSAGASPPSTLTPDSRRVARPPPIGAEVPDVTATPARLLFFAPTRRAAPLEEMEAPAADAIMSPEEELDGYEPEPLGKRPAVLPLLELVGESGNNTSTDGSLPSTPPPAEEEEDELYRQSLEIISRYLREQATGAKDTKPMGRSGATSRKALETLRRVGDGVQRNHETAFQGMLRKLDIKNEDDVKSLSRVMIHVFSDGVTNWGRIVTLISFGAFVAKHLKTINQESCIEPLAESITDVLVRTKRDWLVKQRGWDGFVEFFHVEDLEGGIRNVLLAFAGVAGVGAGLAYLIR
(§3) The BH3 analogous degrees of other 12 compounds were detected by using the experimental method as described above.
(In general: Fluorescence polarisation rises when a labelled molecule tumbles more slowly, as on binding a larger partner.)

The next data set concerns Bcl-2. The experiment in a line: Western blotting, semiquantitative analysis of Bcl-2 protein bands. Format: cell-based. The conditions noted are these: control = 1, tumor cells. As for the experimental part: (§4) The interest protein was detected by the corresponding antibody. The expression of the interest protein in the cells was detected by horseradish peroxidase-labeled secondary antibodies in combination with ECL coloration method. […] The concentration of the protein bands in the Western images were carried out semiquantitative analysis and normalization treatment with KODAK Gel Logic 1500 imaging system software.

Data set [3] addresses T1, interaction between Bcl-2 and Bax (Homo sapiens, UniProt P10415).
T1 construct: expressed in transfected cells; host or cells: Hela cells
Kind of data set: Intracellular FRET, Bcl-2-CFP/Bax-YFP in Hela cells. It is filed as cell-based. The following applies: for Time (time period after which the interaction between Bcl-2 and Bax was interfered): at the concentration given. The gist of the method:
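Hela cells transfected with Bcl-2-CFP and/or Bax-YFP plasmids, then treated with compound in DMSO at 2, 5, 10 and 15 μM for 24 h, or at 40 μM for 3, 6 and 24 h. FRET taken as the 527/475 nm emission ratio at 433 nm excitation, with singly transfected controls set to 1.0. Viability checked by MTT.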

Another data set concerns MCF-7 cells. Kind of data set: Cytotoxicity by MTT, cells without plasmid transfection. It is filed as cell-based. The conditions noted are these: Homo sapiens, MCF7; MCF-7, MTT, 48 hours; read-out: IC50 value in untransfected cells. The gist of the method:
as §1

In another data set the target is GST-Bcl-2 protein (Homo sapiens, UniProt P10415). The experiment in a line: Fluorescence polarization assay, competition with FAM-Bid peptide for Bcl-2. The following applies: GST-Bcl-2 40 nM, FAM-Bid 5 nM, 4 hours of incubation, read-out: Bcl-2 binding constants. As for the experimental part: as §2, §3
Sequence of GST-Bcl-2 protein (P10415 whole entry): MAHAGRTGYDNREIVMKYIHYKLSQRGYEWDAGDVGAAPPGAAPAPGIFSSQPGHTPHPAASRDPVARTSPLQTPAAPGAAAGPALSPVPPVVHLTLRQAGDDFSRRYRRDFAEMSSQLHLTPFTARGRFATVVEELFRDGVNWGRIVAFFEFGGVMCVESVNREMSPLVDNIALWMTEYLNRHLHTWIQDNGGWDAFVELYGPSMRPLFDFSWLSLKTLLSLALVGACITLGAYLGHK
The test system of a further data set is Mcl-1. The experiment in a line: Western blotting, semiquantitative analysis of Mcl-1 protein bands. The conditions noted are these: control = 1, tumor cells. Format: cell-based. As for the experimental part: as §4
(A western blot detects proteins with antibodies after separation by electrophoresis.)

T1 sequence (P10415 whole entry): as above

With `CC(C)c1ccc(Sc2ccc3c4c(cccc24)C2=NC(=O)C(C#N)=C23)cc1` [Compound 20, 3-(4-Isopropyl-phenylsulfanyl)-8-oxo-8H-acenaphtho[1,2-b]pyrrole-9-carbonitrile], in data set [1], the “Doses (concentration at which the compound drove the BAX to shift towards the chondriosome)” value is 5.0 µM. Moreover, the “Time (time period after which BAX shifted towards the chondriosome)” value in data set [1] was found to be 3 h. In addition, the negative logarithm of the IC50 (pIC50) in data set [2] is under 4.30; in the data set with MCF-7 cells, 5.68. For the same compound, the pKi at Mcl-1 protein was 7.24; on GST-Bcl-2 protein, 7.64. Further, the “concentration of the protein bands (semiquantitative, normalized), Bcl-2” value in the data set with Bcl-2 (6 h) is 0.99; in the data set on Bcl-2 (12 h) it was 0.99; in the data set on Bcl-2 (18 h), 0.50; in the data set on Bcl-2 (24 h), 0.23. The “Doses (concentration at which the compound interfered with the interaction between Bcl-2 and Bax)” value in [3] was 0.2 µM. For the same compound, the “Time (time period after which the interaction between Bcl-2 and Bax was interfered)” value in data set [3] was found to be 2 h. In addition, the figures for the “concentration of the protein bands (semiquantitative, normalized), Mcl-1” value in the data set on Mcl-1 (2 h) and with Mcl-1 (6 h) were 0.60 and 0.29, respectively.
`CCC(C)c1ccc(Oc2ccc3c4c(cccc24)C2=NC(=O)C(C#N)=C23)cc1` (centres unmarked) [Compound 13, 3-(4-sec-Butyl-phenoxy)-8-oxo-8H-acenaphtho[1,2-b]pyrrole-9-carbonitrile] gave a melting point of 278 to 279 °C. In addition, in [1], the “Doses (concentration at which the compound drove the BAX to shift towards the chondriosome)” value came out at 5.0 µM and the “Time (time period after which BAX shifted towards the chondriosome)” value is recorded as 4 h. The negative-log IC50 (pIC50) in [2] is under 4.30. Further, at Mcl-1 protein, the pKi is 7.62. In addition, the “concentration of the protein bands (semiquantitative, normalized), Bcl-2” value with Bcl-2 (6 h) came to 0.99. Besides, the “concentration of the protein bands (semiquantitative, normalized), Bcl-2” value with Bcl-2 (12 h) came to 0.99. In the data set on Bcl-2 (18 h), the “concentration of the protein bands (semiquantitative, normalized), Bcl-2” value came out at 0.42. Further, the “concentration of the protein bands (semiquantitative, normalized), Bcl-2” value with Bcl-2 (24 h) is 0.14. Besides, in data set [3], the “Doses (concentration at which the compound interfered with the interaction between Bcl-2 and Bax)” value worked out at 0.5 µM; the “Time (time period after which the interaction between Bcl-2 and Bax was interfered)” value was 4 h. In the data set on MCF-7 cells, the pIC50 was 5.12. Besides, the pKi on GST-Bcl-2 protein is 6.80. The “concentration of the protein bands (semiquantitative, normalized), Mcl-1” value in the data set on Mcl-1 (2 h) amounted to 0.79. Besides, the “concentration of the protein bands (semiquantitative, normalized), Mcl-1” value in the data set on Mcl-1 (6 h) turned out to be 0.29.
